The values below come from patent US20260191861A1, “INFLAMMASOME AND VEGF INHIBITION FOR RETINAL VASCULAR DISEASES” (University of Virginia Patent Foundation, priority 2022, published 2026).

In assay [1] the test system is photoreceptors (TUNEL+ cells in the ONL). Put plainly: RRD model: TUNEL assay of the retinal outer nuclear layer. The class given is in vivo, mouse. The conditions noted are these: day 3 RRD, equimolar IP doses twice daily (K-9H 60 mg/kg, 3TC 50 mg/kg). As for the experimental part: All experiments involving animals were approved by the University of Virginia Institutional Animal Care and Use Committee (IACUC) and adhered to the Association for Research in Vision and Ophthalmology (ARVO) Statement for the Use of Animals in Ophthalmic and Vision Research. Animal subjects were male and female mice aged 6 to 10 weeks. Wild type C57BL/6J mice were obtained from the Jackson Laboratory (Bar Harbor, ME, USA). To anesthetize mice for study procedures, ketamine hydrochloride (100 mg/kg; Ft. Dodge Animal Health, Overland Park, KS, USA) and xylazine (10 mg/kg; Phoenix Scientific, St. Joseph, MO, USA) were delivered by intraperitoneal (IP) injection. Pupils were dilated with topical 1% tropicamide and 2.5% phenylephrine (Alcon Laboratories, Ft. Worth, TX, USA).
RRD model was established by subretinal injection (SRI) of 3 μl 1% carboxymethyl cellulose (CMC; Refresh Liquigel, Allergan, Irvine, CA, USA).
NRTIs and K-9 were delivered via intraperitoneal (IP) injection in equimolar amounts. […] Kamuvudine K-9 (3-methyl-3TC, MW=273 g/mol) was administered either at a low dose (K-9L; 90 mg/kg daily) or a high dose (K-9H; 60 mg/kg twice daily, equimolar to NRTI doses). IP injection of phosphate buffered saline (PBS) was used as control.
Retinal cross cryosections at a thickness of 10 μm were stained with TUNEL (TdT-mediated dUTP nick-end labeling) using the In Situ Cell Death Detection Kit (Roche Diagnostics, Indianapolis, IN, USA) according to the manufacturer's′ instructions. The sections were wet-mounted with ProLong anti-fade reagent with DAPI (P36935, ThermoFisher Scientific, Waltham, MA, USA) and visualized using an A1R laser confocal microscope (Nikon, Tokyo, Japan). Fourteen representative sections, including the optic nerve, were used per treatment group. To calculate the number of TUNEL+ cells in the outer nuclear layer (ONL), the retina analysis toolkit of ImageJ (2.1.0; NIH, Bethesda, MD, USA) was used.

In assay [2] the test system is participants with center-involved diabetic macular edema (CI-DME). Put plainly: Randomized clinical trial of oral lamivudine versus placebo in DME: ETDRS best-corrected visual-acuity letter score (VALS). The class given is in vivo, human. As for the experimental part:
A single center randomized clinical trial was conducted at a tertiary center in São Paulo, Brazil in accordance with the provisions of the Declaration of Helsinki and Good Clinical Practice guidelines. The study was approved by the local institutional review board and study participants provided written informed consent. This study was registered in the Brazilian Registry of Clinical Trials (ReBEC) under the number RBR-87b6r5s. Latinofarma (Brazil) provided the lamivudine and placebo at no cost and also provided funding for bevacizumab which was repackaged in single-used vials by Citopharma (Brazil).
Participants were excluded if they had high-risk proliferative diabetic retinopathy, received any intravitreous injection or laser photocoagulation within the previous 6 months, positive serology for human immunodeficiency virus or hepatitis B virus, or an estimated glomerular rate filtration below 40 mL/min/1.73 m^2 determined with the use of the Cockcroft-Gault equation.
Randomization was performed at the sealed envelope website (https://sealedenvelope.com), in permuted blocks and with stratification according to visual acuity in the study eye. One physician who was not involved with patient assessment was responsible for the randomization and vial delivery to the patients. The study participants, assessing physicians, and OCT technicians were unaware of the treatment group assignment at all visits.
Placebo vials were provided by the same pharmaceutical company responsible for lamivudine production using the same vehicle. The vials were concealed and delivered to the study center. […] At the 4-week visit, participants were administered an intravitreous injection of bevacizumab (1.25 mg in an injection volume of 0.05 ml) in eyes with CI-DME if the best-corrected visual-acuity letter score (VALS) was less than 69 and the retinal central subfield thickness was 325 μm or more. Injection of bevacizumab was performed by the same physician following topical anesthesia, installation of a sterile lid speculum, and application of povidone-iodine drops. No antibiotic was administered after the procedure.
Visual acuity assessment was performed by two certified assessing physicians. The same participant could be assessed by a different physician on each visit. The exam was performed using a back-illuminated 4-meter Early Treatment Diabetic Retinopathy Study (ETDRS) chart. Different ETDRS charts were used to refine the refraction and to assess the right and left eye at each visit. If fewer than 20 letters were correctly identified at 4 meters, testing was also performed at 1 meter adding+0.75 sphere. The refraction was performed without pupil dilation, in the same exam room with a standardized background illumination.
The principal analysis compared lamivudine to placebo. Change in mean VALS from baseline was the primary outcome of interest. We sought to detect a difference of 6 letters in the VALS between groups. This effect size was chosen for power analyses because this change corresponds to a difference of more than 1 line on the ETDRS or Snellen eye charts, the minimal increase in visual acuity judged to be clinically meaningful. By estimating the standard deviation to be 6 letters, we calculated that 16 eyes in each group would provide the trial with 80% power (at a 5% two-sided alpha level) to detect this difference.
To analyze the change in VALS from baseline, a mixed-effects model was employed. Random effects were included in the model to account for subject-specific variability. […] The model's estimates, confidence intervals (CI), and P values were reported for each predictor.
The exams took place at the beginning of the treatment and after 4 weeks of using the medication. At the 4-week return, […] were administered an intravitreous injection of Avastin, one of the standard anti-VEGF treatments for DME. Four weeks after the injection (8 weeks from the start of the study) participants underwent another eye examination. […]

As for `Nc1ccn([C@@H]2CS[C@H](CO)O2)c(=O)n1` [Lamivudine], in assay [1], the “degree of photoreceptor protection” value is given as 38%+10%. Besides, the “Mixed model: change in visual acuity from baseline, Treatment (Lamivudine vs. Placebo), estimate” value in assay [2] (Table 4, weeks 4 and 8) is given as 11.86. In addition, the “Model-based contrast: change in visual acuity, Lamivudine - Placebo” value in assay [2] (change from baseline to week 4) amounted to 11.86; in assay [2] (change from baseline to week 8) it was 18.99. The “percentage of eyes with improvement in VALS of 15 or more” value in assay [2] (week 4, oral lamivudine) stood at 38%; in assay [2] (week 8, oral lamivudine plus intravitreous bevacizumab at week 4), 56%. Further, the “mean change in VALS from baseline” value in assay [2] (week 4, oral lamivudine 150 mg twice daily, before intravitreous bevacizumab) was 9.8 letters. Also, the “mean improvement in VALS from baseline” value in assay [2] (week 8, oral lamivudine plus intravitreous bevacizumab 1.25 mg at week 4) was 16.9 letters.
